Results on two compounds are retold here after patent EP0876160B1, “LIGAND DIRECTED ENZYME PRODRUG THERAPY” (priority 1996, dated 1997).

Each structure is given as a SMILES string.

The subject of assay [1] is human umbilical vein endothelial (Hu-V-ec) cells. In words: VEGF-directed cytotoxicity assay, cell growth by [3H]-thymidine incorporation. Type of assay: cell-based. As for the experimental part:
Confluent Hu-V-ec cells were cultured in the absence (control, lane 1) or presence of 1mM CMDA prodrug (+ CMDA, lane 2) for 18 hours. After incubation, the cells were diluted into fresh dishes (at a dilution of 3 fold) and allowed to grow for a further 6 days after which time the survival of the cells was determined by [^3H] thymidine incorporation. The results are expressed in terms of the % growth in terms of the control, which were considered to represent 100% cell growth.
Confluent Hu-V-ec cells were cultured in the absence of any additions (control, lane 3) or in the presence of CPH6 (27 nM, lane 4), or of V115CPH6 (11nM, lane 5) for 30 min. The cells were then washed 6 times with fresh medium and incubated overnight in the presence of 1mM CMDA. The cells were re-plated at a dilution of 1/3 and allowed to grow for a further 4 days after which time the cell growth was estimated by [3H]thymidine incorporation. The results are expressed in terms of the % growth in terms of the control lane, which were considered to represent 100% cell growth.
The fusion proteins were assesed for their ability to direct the CMDA-dependent killing of cells which express specific receptors for VEGF on their surface. For this analysis, we employed human umbilical vein endothelial (Hu-V-ec) cells, which are dependent for growth on VEGF (Prog Growth Factor Res, 5, 89, 1994). […] The cells were incubated in the presence of CPH6, or V115CPH6 for 30 min to allow the fusion proteins to bind to the cell surface and then the cells were washed to remove unbound protein. CMDA was added and cell survival was determined by [3H]-thymidine incorporation.
In general terms: Dividing cells build labelled thymidine or BrdU into new DNA.

The next assay has as its system NIH3T3 cells. In words: Non-specific cytotoxicity assay, cell growth by [3H]-thymidine incorporation. Type of assay: cell-based. As for the experimental part: Confluent NIH3T3 cells were cultured in the absence (control, lane 1) or presence of 1mM CMDA prodrug (+CMDA, lane 2) for 18 hours. After incubation, the cells were diluted into fresh dishes (at a dilution of 100 fold) and allowed to grow for a further 6 days after which time the survival of the cells was determined by [^3H] thymidine incorporation. The results are expressed in terms of the % growth in terms of the control, which were considered to represent 100% cell growth.
Confluent NIH3T3 cells were cultured in the presence of 1mM CMDA prodrug in the absence of any additions (control, lane 3) or in the presence of the indicated fusion proteins (lanes 4-8). The additions were : lane 4, CPH6; lane 5, CPV161H6; lane 6, V161CPH6; lane 7, V115CPH6; lane 8, pEFCPV109H6. For each fusion, 0.3 to 0.9 nM of the fusions were added as determined by quantitative immunoprotein blotting. The cells were incubated and processed as in section A above for cell growth. […]
For the first assay, we wished to establish that CPH6 and the fusion proteins were able to direct prodrug dependent cyotoxicity of NIH3T3 cells, in a non-targeted manner. […] Samples of the purified proteins were added to NIH3T3 cells in the presence of the CMDA prodrug and the effects on cell viability were determined by measuring cell growth by [3H]-thymidine incorporation.

Assay [2] has as its target CPG2/VEGF fusion protein CPV109H6 (CPG2 amino acids 23-415 fused via peptide spacer to VEGF amino acids 1-109, polyhistidine tag), SEQ ID No. 18 (UniProt P06621+P15692, form not given/N222Q/N264Q/N272Q). The conditions noted are these: substrate MTX; CPV109H6 expressed in Sf9 cells, Ni++-NTA purified; 25°C, pH 7.3. From the text: (§1) Using this protocol, CPH6, V161CPH6, V115CPH6 and CPV109H6 were all purified from Sf9 cells by Ni++-NTA-Agarose affinity chromatography as described above. These samples were used to determine the affinity of the CPG2 moiety for the substrate MTX.

Assay [3] has as its target VEGF/CPG2 fusion protein V161CPH6 (VEGF amino acids 1-161 fused to CPG2 amino acids 23-415, polyhistidine tag), SEQ ID No. 8 (UniProt P06621+P15692, form not given/N222Q/N264Q/N272Q). To be noted: substrate MTX; V161CPH6 expressed in Sf9 cells, Ni++-NTA purified; 25°C, pH 7.3.
Source text: as §1

Assay [4] has as its target Carboxypeptidase G2 (CPG2) construct CPH6 (c-erbB2 signal peptide, CPG2 amino acids 23-415, three Asn -> Gln glycosylation-site mutations N222, 264 and 272 > Q, (Pseudomonas sp., UniProt P06621, N222Q/N264Q/N272Q)). The conditions noted are these: substrate MTX; CPH6 expressed in Sf9 cells, Ni++-NTA purified; 25°C, pH 7.3.
Source text: as §1

Assay [5] deals with VEGF/CPG2 fusion protein V115CPH6 (VEGF amino acids 1-115 fused to CPG2, polyhistidine tag), SEQ ID No. 10 (UniProt P06621+P15692, form not given/N222Q/N264Q/N272Q). To be noted: substrate MTX; V115CPH6 expressed in Sf9 cells, Ni++-NTA purified; 25°C, pH 7.3.
Source text: as §1

Assay [6] concerns the target bacterially produced CPG2 (Carboxypeptidase G2, wild type) (Pseudomonas sp., UniProt P06621). The conditions noted are these: substrate MTX; cited from earlier work.

Turning to `CS(=O)(=O)OCCN(CCCl)c1ccc(C(=O)N[C@@H](CCC(=O)O)C(=O)O)cc1` [CMDA, N-4-[(2-chloroethyl)(2-mesyloxyethyl)amino]benzoyl-L-glutamic acid], the “sensitivity (growth rate)” value in assay [1] (1mM CMDA alone, 18 hours) is on record as “not significantly sensitive”. The “growth rate of the cells” value in assay [1] (cells pre-incubated with CPH6 (27 nM) 30 min, washed, then 1mM CMDA overnight) is given as “no significant affect on the growth rate”. Besides, in assay [1] (cells pre-incubated with V115CPH6 (11nM) 30 min, washed, then 1mM CMDA overnight), the “inhibition of cell growth” value is listed as > 90%. In the assay on NIH3T3 cells (1mM CMDA alone, 18 hours, then 6 days growth), the growth of cells result is reported as “does not significantly affect the growth”. Further, the cell death entry with NIH3T3 cells (1mM CMDA in the presence of sub-nanomolar (0.3 to 0.9 nM) CPH6 or each of the fusion proteins) is recorded as “complete cell death”.
In general, Km refers to the concentration of substrate that gives half-maximal velocity. `CN(Cc1cnc2nc(N)nc(N)c2n1)c1ccc(C(=O)N[C@@H](CCC(=O)O)C(=O)O)cc1` [MTX, Methotrexate]: the Km is 9.1 ± 1.1 µM in assay [2]; 18.2 ± 1.5 µM in assay [3]; 19.6 ± 3.2 µM in assay [4]; 17 ± 1 µM in assay [5]; ~10 µM in assay [6].
